Assay results: patent publication US12215093B2, “Bicyclic carboxamides and methods of use thereof” (Tempest Therapeutics, Inc., priority 2018, dated 2025)
Like-named read-outs stand apart in the source and are kept apart here.

Tests used:
EP4 = target: T1, EP4 (Homo sapiens, UniProt P35408); assay: Functional calcium flux assay, EP4; format: cell-based; conditions: stably transfected HEK293 cells; PGE2 10 nM; read-out: EP4 Ca2+-flux assay IC50
T1 construct: host or cells: stably transfected HEK293 cells co-expressing a promiscuous G protein and a clytin variant
T1 sequence (P35408 whole entry): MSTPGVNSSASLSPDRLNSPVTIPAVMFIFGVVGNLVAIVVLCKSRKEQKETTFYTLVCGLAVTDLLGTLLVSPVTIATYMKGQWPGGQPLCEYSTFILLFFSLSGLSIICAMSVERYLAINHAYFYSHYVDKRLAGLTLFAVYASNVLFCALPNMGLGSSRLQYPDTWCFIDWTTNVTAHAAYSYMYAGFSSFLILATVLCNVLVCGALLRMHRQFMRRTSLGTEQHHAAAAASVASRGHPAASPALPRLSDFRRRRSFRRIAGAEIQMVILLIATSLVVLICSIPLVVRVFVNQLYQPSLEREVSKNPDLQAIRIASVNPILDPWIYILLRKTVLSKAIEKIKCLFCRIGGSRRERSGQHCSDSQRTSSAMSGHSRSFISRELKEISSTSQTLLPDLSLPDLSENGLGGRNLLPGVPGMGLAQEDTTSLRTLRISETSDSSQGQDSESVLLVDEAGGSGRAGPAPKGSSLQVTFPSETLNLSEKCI
Description: (§1) Each receptor subtype has an additional promiscuous G protein added in order to couple the aforementioned receptor to the calcium signaling pathway. The parental cell line used also expresses a novel variant of clytin, a calcium-activated photo-protein, to enable sensitive luminescent detection. Briefly, cells were plated at 50,000 cells-per-well in black, clear bottom 96-well plates. The plated cells were allowed to sit at room temperature for 30 min prior to transferring to a humidified, 37° C., 5% CO2 incubator for 18 to 24 h. Assay buffer (HBSS with 20 mM HEPES) and loading buffer (assay buffer plus 10 μM coelenterazine) were prepared on the day of the assay. Assays were performed by aspirating media from the assay plate and washing once with assay buffer, then replacing with loading buffer and allowing the cells to incubate for 1.5 h at room temperature. Compounds were prepared in assay buffer at a 3× final concentration in non-binding plates. Compounds were added to the cell plates and incubated for 30 min at room temperature. The prostanoid receptor ligand PGE2 was prepared at a 4× dilution ratio for a final concentration of 10 nM. Plates were run on a Flexstation™ using a 100 ms integration luminescence protocol for a total of 60 sec with ligand addition at 15 sec. Data were obtained from relative light units as measured by area under the curve.

EP2 [1] = target: T2, EP2 (Homo sapiens, UniProt P43116); assay: cell-based;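 further: functional calcium flux assay in stably transfected HEK293 cells expressing EP2 coupled via a promiscuous G protein, clytin luminescence read as area under the curve, 30 min compound preincubation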
T2 sequence (P43116 whole entry): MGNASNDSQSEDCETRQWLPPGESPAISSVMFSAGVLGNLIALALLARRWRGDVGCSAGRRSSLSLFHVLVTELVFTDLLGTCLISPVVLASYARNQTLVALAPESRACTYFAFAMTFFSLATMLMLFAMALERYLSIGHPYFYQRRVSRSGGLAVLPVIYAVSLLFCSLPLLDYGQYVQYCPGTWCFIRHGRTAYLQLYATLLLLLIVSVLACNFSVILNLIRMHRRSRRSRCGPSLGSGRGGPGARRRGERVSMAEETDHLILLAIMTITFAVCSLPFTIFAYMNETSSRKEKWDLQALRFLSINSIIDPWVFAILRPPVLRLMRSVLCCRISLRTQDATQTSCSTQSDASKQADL
Description: as §1

EP2 [2] = target: T2, EP2
Description: as §1

Row | SMILES | IC50 (EP4) | IC50 (EP2 [1]) | IC50 (EP2 [2])
1 | O=C(NC1CC2(C1)CC(C(=O)O)C2)c1ccc(F)c2ccn(Cc3ccc4cc(F)ccc4c3)c12 (racemic) [Example 5, (racemic)-6-(4-fluoro-1-((6-fluoronaphthalen-2-yl)methyl)-1H-indole-7-carboxamido)spiro[3.3]heptane-2-carboxylic acid] | < 1 nM | < 25 nM | 
2 | O=C(NC1CC2(C1)CC(C(=O)O)C2)c1ccc(F)c2ccn(Cc3ccc(-c4ccccc4)c(F)c3)c12 (racemic) [Example 10, (racemic)-6-(4-Fluoro-1-((2-fluoro-[1,1′-biphenyl]-4-yl)methyl)-1H-indole-7-carboxamido)spiro[3.3]heptane-2-carboxylic acid] | < 1 nM | < 25 nM | 
3 | COc1ccc2cc(-c3ccc(Cn4ncc5c(Cl)ccc(C(=O)NC6CC7(CC(CC(=O)O)C7)C6)c54)cc3)ccc2n1 (stereo not drawn) [Example 146, (Ra)-2-(6-(4-Chloro-1-(4-(2-methoxyquinolin-6-yl)benzyl)-1H-indazole-7-carboxamido)spiro[3.3]heptan-2-yl)acetic acid] | < 1 nM |  | 82 nM
4 | COc1cccc(-c2ccc(Cn3ncc4c(Cl)ccc(C(=O)NC5CC6(CC(CC(=O)O)C6)C5)c43)cc2)n1 [Example 149, (R)-2-(6-(4-Chloro-1-(4-(6-methoxypyridin-2-yl)benzyl)-1H-indazole-7-carboxamido)spiro[3.3]heptan-2-yl)acetic acid] | < 1 nM |  | 38 nM
5 | O=C(O)CC1CC2(C1)CC(NC(=O)c1cc(Cl)cc3cnn(Cc4ccc(-c5ccccc5)c(F)c4)c13)C2 (stereo not drawn) [Example 151, (Ra)-2-(6-(5-Chloro-1-((2-fluoro-[1,1′-biphenyl]-4-yl)methyl)-1H-indazole-7-carboxamido)spiro[3.3]heptan-2-yl)acetic acid] | < 1 nM |  | < 25 nM
6 | COc1cc(C(=O)NC2CC3(C2)CC(C(=O)O)C3)c2c(cnn2Cc2ccc(-c3ccccc3)cc2)c1 (stereo not drawn) [Example 159, (Sa)-6-(1-([1,1′-Biphenyl]-4-ylmethyl)-5-methoxy-1H-indazole-7-carboxamido)spiro[3.3]heptane-2-carboxylic acid] | < 1 nM |  | 65 nM
7 | O=C(O)CC1CC2(C1)CC(NC(=O)c1ccc(OC(F)F)c3cnn(Cc4ccc(-c5ccccc5)cc4)c13)C2 (stereo not drawn) [Example 162, (Ra)-2-(6-(1-([1,1′-Biphenyl]-4-ylmethyl)-4-(difluoromethoxy)-1H-indazole-7-carboxamido)spiro[3.3]heptan-2-yl)acetic acid] | 1.2 nM |  | 52 nM
8 | O=C(O)CC1CC2(C1)CC(NC(=O)c1cc(OC(F)F)cc3cnn(Cc4ccc(-c5ccccc5)cc4)c13)C2 (stereo not drawn) [Example 165, (Ra)-2-(6-(1-([1,1′-Biphenyl]-4-ylmethyl)-5-(difluoromethoxy)-1H-indazole-7-carboxamido)spiro[3.3]heptan-2-yl)acetic acid] | 1 nM |  | < 25 nM
9 | O=C(O)CC1CC2(C1)CC(NC(=O)c1cc(Cl)c(F)c3cnn(Cc4ccc(-c5ccccc5)cc4)c13)C2 (stereo not drawn) [Example 170, (Ra)-2-(6-(1-([1,1′-Biphenyl]-4-ylmethyl)-5-chloro-4-fluoro-1H-indazole-7-carboxamido)spiro[3.3]heptan-2-yl)acetic acid] | 5.1 nM |  | < 25 nM
10 | COc1ccc2cc(Cn3ncc4c(Cl)ccc(C(=O)N[C@H]5CC6(C5)C[C@H](C(=O)O)C6)c43)ccc2n1 (stereo partly drawn) [Example 175, (Sa)-6-(4-Chloro-1-((2-methoxyquinolin-6-yl)methyl)-1H-indazole-7-carboxamido)spiro[3.3]heptane-2-carboxylic acid] | 5.6 nM |  | < 25 nM

Now from value to compound:

Row | IC50 (EP4) | IC50 (EP2 [1]) | IC50 (EP2 [2]) | SMILES
11 | < 1 nM | 34 nM |  | O=C(NC1CC2(C1)CC(C(=O)O)C2)c1ccc(F)c2ccn(Cc3ccc(OC(F)(F)F)cc3)c12 (racemic) [Example 1, (racemic)-6-(4-Fluoro-1-(4-(trifluoromethoxy)benzyl)-1H-indole-7-carboxamido)spiro[3.3]heptane-2-carboxylic acid]
12 | < 1 nM | < 25 nM |  | CC(C)(C)c1ccc(Cn2ccc3c(Cl)ccc(C(=O)NC4CC5(C4)CC(C(=O)O)C5)c32)cc1 (racemic) [Example 7, (racemic)-6-(1-(4-(tert-Butyl)benzyl)-4-chloro-1H-indole-7-carboxamido)spiro[3.3]heptane-2-carboxylic acid]
13 | < 1 nM |  | < 25 nM | COc1ccc2cc(-c3ccc(Cn4ncc5cc(Cl)cc(C(=O)NC6CC7(CC(CC(=O)O)C7)C6)c54)cc3)ccc2n1 (stereo not drawn) [Example 147, (Ra)-2-(6-(5-Chloro-1-(4-(2-methoxyquinolin-6-yl)benzyl)-1H-indazole-7-carboxamido)spiro[3.3]heptan-2-yl)acetic acid]
14 | < 1 nM |  | 49 nM | O=C(O)CC1CC2(C1)CC(NC(=O)c1cc(Cl)cc3cnn(Cc4ccc(-c5ccccc5)c(F)c4)c13)C2 (stereo not drawn) [Example 152, (Sa)-2-(6-(5-Chloro-1-((2-fluoro-[1,1′-biphenyl]-4-yl)methyl)-1H-indazole-7-carboxamido)spiro[3.3]heptan-2-yl)acetic acid]
15 | < 1 nM |  | 95 nM | O=C(NC1CC2(C1)CC(C(=O)O)C2)c1cc(Cl)cc2cnn(Cc3ccc(-c4ccccc4)c(F)c3)c12 (stereo not drawn) [Example 153, (Sa)-6-(5-Chloro-1-((2fluoro-[1,1′-biphenyl]-4-yl)methyl)-1H-indazole-7-carboxamido)spiro[3.3]heptane-2-carboxylic acid]
16 | 2.8 nM |  | < 25 nM | COc1cc(-c2ccc(Cn3ncc4cc(Cl)cc(C(=O)NC5CC6(C5)CC(C(=O)O)C6)c43)cc2F)ccn1 (stereo not drawn) [Example 154, (Sa)-6-(5-Chloro-1-(3-fluoro-4-(2-methoxypyridin-4-yl)benzyl)-1H-indazole-7-carboxamido)spiro[3.3]heptane-2-carboxylic acid]
17 | < 1 nM |  | < 25 nM | COc1cc(-c2ccc(Cn3ncc4cc(Cl)cc(C(=O)NC5CC6(C5)CC(C(=O)O)C6)c43)c(F)c2)ccn1 (stereo not drawn) [Example 156, (Sa)-6-(5-Chloro-1-(2-fluoro-4-(2-methoxypyridin-4-yl)benzyl)-1H-indazole-7-carboxamido)spiro[3.3]heptane-2-carboxylic acid]
18 | < 1 nM |  | 63 nM | COc1ccc(C(=O)NC2CC3(CC(CC(=O)O)C3)C2)c2c1cnn2Cc1ccc(-c2ccccc2)cc1 (stereo not drawn) [Example 161, (Ra)-2-(6-(1-([1,1′-Biphenyl]-4-ylmethyl)-4-methoxy-1H-indazole-7-carboxamido)spiro[3.3]heptan-2-yl)acetic acid]
19 | < 1 nM |  | 30 nM | O=C(NC1CC2(C1)CC(C(=O)O)C2)c1cc(OC(F)F)cc2cnn(Cc3ccc(-c4ccccc4)cc3)c12 (stereo not drawn) [Example 163]
20 | < 1 nM |  | < 25 nM | COc1cc(C(=O)NC2CC3(CC(CC(=O)O)C3)C2)c2c(cnn2Cc2ccc(-c3ccccc3)cc2)c1 (stereo not drawn) [Example 164, (Ra)-2-(6-(1-([1,1′-Biphenyl]-4-ylmethyl)-5-methoxy-1H-indazole-7-carboxamido)spiro[3.3]heptan-2-yl)acetic acid]
21 | 1.4 nM |  | < 25 nM | COc1c(Cl)cc(C(=O)NC2CC3(CC(CC(=O)O)C3)C2)c2c1cnn2Cc1ccc(-c2ccccc2)cc1 (stereo not drawn) [Example 171, (Ra)-2-(6-(1-([1,1′-Biphenyl]-4-ylmethyl)-5-chloro-4-methoxy-1H-indazole-7-carboxamido)spiro[3.3]heptan-2-yl)acetic acid]
